Assay results as given in publication PMC10743086, “Immunofluorescence-Based Assay for High-Throughput Analysis of Multidrug Resistance Markers in Non-Small Cell Lung Carcinoma Patient-Derived Cells” (Diagnostics, 2023).

Key:
Format in all cases: cell-based, human
[1] = system: ABCG2 expression in cancer cells (CK8/18+); test: Immunofluorescence assay of ABCG2 expression in patient-derived NSCLC cultures; conditions: 7 days
Protocol: (§1) Tissue samples were collected during surgery, and the NSCLC diagnosis, histological grade, stage, necrosis, and lymph node invasion status were determined by histopathological analysis. […] The surgical specimens were placed in a sterile tube containing antibiotic-antimycotic solution (Sigma-Aldrich Chemie GmbH, Taufkirchen, Germany) and immediately transported to the research laboratory for further processing.
(§2) Upon arrival, the tissue was manually chopped with a surgical blade in a Petri dish under sterile conditions. The samples were cut into 3–5 mm pieces and further dissociated using the Tumor Dissociation Kit (Miltenyi Biotec, Bergisch Gladbach, Germany). The Tumor Dissociation Kit was used to dissociate the cells from the tumor tissue according to the manufacturer’s instructions. The samples were incubated in a 37 °C orbital shaker (KS 4000 ic control, IKA, Königswinter, Germany) at 300 rpm for 90 min. After incubation, the dissociated tissue was placed in DMEM/Ham’s F12 (1:3 ratio) growth medium supplemented with 5% fetal bovine serum (Corning, NY, USA), antibiotic-antimycotic solution, 4 µg/mL hydrocortisone (Sigma-Aldrich Chemie GmbH, Taufkirchen, Germany), 1 µg/mL insulin (Sigma-Aldrich Chemie GmbH, Taufkirchen, Germany), 10 ng/mL epidermal growth factor (BioLegend, San Diego, CA, USA), and 24 µg/mL adenine (Sigma-Aldrich Chemie GmbH, Taufkirchen, Germany). The DMEM and Ham’s F12 growth media were purchased from Sigma-Aldrich Chemie GmbH (Taufkirchen, Germany).
(§3) The dissociated tissue was cultured in T-25 cell culture flasks until cell attachment was observed before the medium was replaced. If no cell attachment was achieved within 7 days, the sample was discarded. Successful patient-derived cultures were maintained at 37 °C in a humidified atmosphere with 5% CO2 and grown to confluence before undergoing further experiments. […] Partial trypsinization was performed by detaching the fibroblast-like cells with 1 mL of 0.05% trypsin for 1 min at 37 °C, followed by 2 min at room temperature (RT).
(§4) Vinorelbine and pemetrexed were purchased from Selleckchem (Houston, TX, USA). Carboplatin, cisplatin, docetaxel, etoposide, gemcitabine, gefitinib, and paclitaxel were purchased from Sigma-Aldrich Chemie GmbH (Taufkirchen, Germany). The cisplatin, carboplatin, and gemcitabine were dissolved in sterile water, while the etoposide, docetaxel, vinorelbine, paclitaxel, gefitinib, and pemetrexed were dissolved in DMSO and stored at −20 °C. Before treatment, all the stock solutions were freshly diluted in sterile water.
(§5) The primary cells were seeded in black, clear bottom 384-well cell culture microplates (Thermo Fisher Scientific, Waltham, MA, USA) in 50 µL of cell growth medium at a density of 1000 cells per well. The compounds were administered 72 h after seeding. The treatment lasted 7 days.
(§6) The immunofluorescence assay for the quantification of MDR markers was optimized to distinguish cancer cells from stromal cells using a cytokeratin 8/18 (CK8/18) antibody cocktail. The cells were fixed with 4% paraformaldehyde for 20 min at RT and washed three times with PBS using the Wellwash Versa microplate washer (Thermo Fisher Scientific, Waltham, MA, USA). The cells were then blocked with 2% bovine serum albumin (BSA) in PBS for 1 h at RT. […] Co-immunostaining with antibodies against MDR markers was performed to detect the presence of ABCB1, ABCC1, and ABCG2 in both the cancer and stromal cells. […] The secondary antibodies were incubated with the cells at RT for 2 h in the dark. […] Finally, the cells were washed three times with PBS and stored at 4 °C in the dark before imaging.

MRC-5 cells = test: Cytotoxicity by immunofluorescence cell scoring (cell counts), normal fibroblasts; conditions: 24 h treatment
Protocol: as §4
(§7) The compounds were administered 48 h after seeding. The treatment lasted 24 h.
as §6
(§8) The fluorescently labeled cells were imaged using the ImageXpress Pico Automated Cell Imaging System (Molecular Devices, San Jose, CA, USA) with a 4x objective after determining the appropriate exposure time for each illumination filter. Analysis of the obtained images was performed using CellReporterXpress software v. 2.8.2.669 (Molecular Devices). The cytotoxicity of the compounds was determined using the Cell Scoring Analysis Protocol. […] Expression of MDR markers was determined using the Multi-Wavelength Cell Scoring Analysis Protocol.

NCI-H460/R cells = test: Cytotoxicity by immunofluorescence cell scoring (cell counts), multidrug-resistant NSCLC cell line; conditions: 24 h treatment
Source text: Human non-small cell lung carcinoma cells (NCI-H460) were purchased from the American Type Culture Collection (Rockville, MD, USA), and normal embryonic lung fibroblasts (MRC-5) were purchased from the European Collection of Authenticated Cell Cultures (Salisbury, UK). Multidrug-resistant NCI-H460/R cells overexpressing ABCB1 were selected from the NCI-H460 cells after selective pressure with doxorubicin [21]. All the cell lines were maintained in MEM medium (Sigma-Aldrich Chemie GmbH, Taufkirchen, Germany) supplemented with 10% FBS, 2 mM L-glutamine, and antibiotic-antimycotic solution. All the cell lines were maintained at 37 °C in a humidified atmosphere with 5% CO2.
as §4, §7, §6, §8

[2] = system: ABCB1 expression in NCI-H460 cells; test: Immunofluorescence assay of MDR marker ABCB1 expression; conditions: five concentrations, 24 h
Protocol: as §4, §7, §6, §8

[3] = system: ABCB1 expression in NCI-H460/R cells; test: as above; conditions: five concentrations, 24 h
Protocol: as §4, §7, §6, §8

[4] = system: ABCB1 expression in MRC-5 cells; test: as above; conditions: five concentrations, 24 h
Protocol: as §4, §7, §6, §8

[5] = system: ABCC1 expression in cancer cells (CK8/18+); test: Immunofluorescence assay of ABCC1 expression in patient-derived NSCLC cultures; conditions: 7 days
Protocol: as §1, §2, §3, §4, §5, §6

[6] = system: Non-cancer cells (CK8/18-) of patient-derived NSCLC cultures; test: Cytotoxicity in patient-derived NSCLC cultures, non-cancer cells; conditions: 7 days treatment
Protocol: as §1, §2, §3, §4, §5, §6

[7] = system: ABCB1 expression in cancer cells (CK8/18+); test: Immunofluorescence assay of ABCB1 expression in patient-derived NSCLC cultures; conditions: 7 days
Protocol: as §1, §2, §3, §4, §5, §6

[8] = culture TR58, cancer cells (CK8/18+)
[9] = culture TR64, cancer cells (CK8/18+)
[10] = culture TR65, cancer cells (CK8/18+)
[11] = culture TR84, cancer cells (CK8/18+)
[12] = culture TR87, cancer cells (CK8/18+)
[13] = MRC-5 (co-culture with NCI-H460)
[14] = MRC-5 (co-culture with NCI-H460/R)
[15] = NCI-H460/R (co-culture with MRC-5)

With N.N.[Cl][Pt][Cl] [Cisplatin, cisplatin] the ABCG2 expression [1, 8] was “increase (An increase in ABCB1, ABCC1, or ABCG2 expression of at least 20% at a minimum of one concentration is shown in the table.)”, the ABCG2 expression [1, 9] was “increase (An increase in ABCB1, ABCC1, or ABCG2 expression of at least 20% at a minimum of one concentration is shown in the table.)” and the ABCG2 expression [1, 10] was “increase (An increase in ABCB1, ABCC1, or ABCG2 expression of at least 20% at a minimum of one concentration is shown in the table.)”. For the same compound, the ABCG2 expression [1, 11] was “increase (An increase in ABCB1, ABCC1, or ABCG2 expression of at least 20% at a minimum of one concentration is shown in the table.)”, the ABCG2 expression [1, 12] was “increase (An increase in ABCB1, ABCC1, or ABCG2 expression of at least 20% at a minimum of one concentration is shown in the table.)” and the IC50 (MRC-5 cells; [13]) was over 15 µM. It also gave an IC50 (MRC-5 cells; [14]) of over 15 µM, an IC50 (MRC-5 cells; MRC-5 monoculture) of 14.7 µM and an IC50 (NCI-H460/R cells; [15]) of 5.6 µM. The IC50 (NCI-H460/R cells; NCI-H460/R monoculture) was 5.33 µM, the “ABCB1 Expression” value ([2]; NCI-H460 (co-culture with MRC-5)) was “no change” and the “ABCB1 Expression” value ([2]; NCI-H460 monoculture) was “increase (An increase in ABCB1 expression of at least 20% at a minimum of one concentration is shown in the table.)”. For the same compound, the “ABCB1 Expression” value [3, 15] was “no change”, the “ABCB1 Expression” value ([3]; NCI-H460/R monoculture) was “no change” and the “ABCB1 Expression” value [4, 13] was “no change”. The “ABCB1 Expression” value [4, 14] was “no change”, the “ABCB1 Expression” value ([4]; MRC-5 monoculture) was “no change” and the ABCC1 expression [5, 8] was “no change”. For the same compound, the ABCC1 expression [5, 9] was “increase (An increase in ABCB1, ABCC1, or ABCG2 expression of at least 20% at a minimum of one concentration is shown in the table.)”, the ABCC1 expression [5, 10] was “increase (An increase in ABCB1, ABCC1, or ABCG2 expression of at least 20% at a minimum of one concentration is shown in the table.)” and the ABCC1 expression [5, 11] was “increase (An increase in ABCB1, ABCC1, or ABCG2 expression of at least 20% at a minimum of one concentration is shown in the table.)”. For the same compound, the ABCC1 expression [5, 12] was “increase (An increase in ABCB1, ABCC1, or ABCG2 expression of at least 20% at a minimum of one concentration is shown in the table.)”, the IC50 ([6]; culture TR58, non-cancer cells (CK8/18-)) was 5.1 µM and the IC50 ([6]; culture TR64, non-cancer cells (CK8/18-)) was 8.26 µM. For the same compound, the IC50 ([6]; culture TR65, non-cancer cells (CK8/18-)) was 1.21 µM, the IC50 ([6]; culture TR84, non-cancer cells (CK8/18-)) was 0.789 µM and the IC50 ([6]; culture TR87, non-cancer cells (CK8/18-)) was 3.38 µM. For the same compound, the ABCB1 Expression [7, 8] was “no change”, the ABCB1 Expression [7, 9] was “increase (An increase in ABCB1, ABCC1, or ABCG2 expression of at least 20% at a minimum of one concentration is shown in the table.)” and the ABCB1 Expression [7, 10] was “increase (An increase in ABCB1, ABCC1, or ABCG2 expression of at least 20% at a minimum of one concentration is shown in the table.)”. For the same compound, the ABCB1 Expression [7, 11] was “increase (An increase in ABCB1, ABCC1, or ABCG2 expression of at least 20% at a minimum of one concentration is shown in the table.)” and the ABCB1 Expression [7, 12] was “increase (An increase in ABCB1, ABCC1, or ABCG2 expression of at least 20% at a minimum of one concentration is shown in the table.)”.
